# Data reported in ChEMBL document CHEMBL1156041, “Synthesis and antifungal activity of benzo[d]oxazole-4,7-diones” (2009).
# Columns and labels:
# Format in all cases: functional
# Pichia kudriavzevii = assay: Antifungal activity against Candida krusei Berkout KCCM 11655 after 1 day by twofold broth dilution method; conditions: KCCM 11655, 24 h
# Aspergillus flavus = assay: Antifungal activity against Aspergillus flavus KCCM 11899 by twofold broth dilution method
# Candida albicans = assay: Antifungal activity against Candida albicans Berkout KCCM 50235 after 1 day by twofold broth dilution method; conditions: KCCM 50235, 24 h
# Candida tropicalis = assay: Antifungal activity against Candida tropicalis Berkout KCCM 50662 after 1 day by twofold broth dilution method; conditions: KCCM 50662, 24 h
# Aspergillus niger = assay: Antifungal activity against Aspergillus niger KCTC 1231 after 2 days by twofold broth dilution method; conditions: KCTC 1231, 48 h
# Cryptococcus neoformans = assay: Antifungal activity against Cryptococcus neoformans KCCM 50564 after 1 day by twofold broth dilution method; conditions: KCCM 50564, 24 h
MIC (Pichia kudriavzevii) [µg/mL],MIC (Aspergillus flavus) [µg/mL],MIC (Candida albicans) [µg/mL],MIC (Candida tropicalis) [µg/mL],MIC (Aspergillus niger) [µg/mL],MIC (Cryptococcus neoformans) [µg/mL],SMILES
6.3,3.2,6.3,25,3.2,6.3,CCc1nc2c(o1)C(=O)C(Nc1ccc(Cl)cc1)=C(Br)C2=O
3.2,6.3,25,12.5,12.5,12.5,CCc1nc2c(o1)C(=O)C(Sc1ccc(C)c(C)c1)=C(Sc1ccc(C)c(C)c1)C2=O
25,25,50,12.5,50,12.5,CCc1nc2c(o1)C(=O)C(Nc1ccc(O)cc1)=C(Br)C2=O
50,6.3,12.5,6.3,12.5,12.5,CCc1nc2c(o1)C(=O)C(Nc1cccc(C#N)c1)=C(Br)C2=O
6.3,3.2,12.5,6.3,6.3,6.3,CCc1nc2c(o1)C(=O)C(Nc1ccc(F)cc1)=C(Br)C2=O
50,25,50,50,25,25,CCc1nc2c(o1)C(=O)C(Nc1ccc([N+](=O)[O-])cc1)=C(Br)C2=O
12.5,12.5,12.5,12.5,12.5,12.5,CCc1nc2c(o1)C(=O)C(Sc1ccccc1)=C(Sc1ccccc1)C2=O
100,> 100,> 100,50,> 100,100,CCc1nc2c(N)cccc2o1
3.2,3.2,6.3,6.3,6.3,3.2,CCc1nc2c(o1)C(=O)C(Nc1ccc(I)cc1)=C(Br)C2=O
50,25,12.5,25,25,25,CCc1nc2c(o1)C(=O)C(Sc1ccc(CC)c(CC)c1)=C(Sc1ccc(CC)c(CC)c1)C2=O
50,25,50,50,25,25,CCc1nc2c(o1)C(=O)C(Nc1ccc(C#N)cc1)=C(Br)C2=O
25,25,50,6.3,50,25,CCc1nc2c(o1)C(=O)C(Nc1cccc(O)c1)=C(Br)C2=O
3.2,3.2,1.6,3.2,1.6,1.6,CCc1nc2c(o1)C(=O)C(Nc1ccccc1)=C(Br)C2=O
3.2,1.6,0.8,3.2,0.8,1.6,CCc1nc2c(o1)C(=O)C(Nc1ccc(Br)cc1)=C(Br)C2=O
6.3,3.2,6.3,6.3,3.2,3.2,CCc1nc2c(o1)C(=O)C(Nc1cccc(Cl)c1)=C(Br)C2=O
1.6,6.3,6.35,12.5,3.2,3.2,CCc1nc2c(o1)C(=O)C(Nc1ccc(OC)cc1)=C(Br)C2=O
12.5,25,50,50,25,12.5,CCc1nc2c(o1)C(=O)C(Sc1ccc(Br)c(Br)c1)=C(Sc1ccc(Br)c(Br)c1)C2=O
6.3,6.3,12.5,3.2,6.3,6.3,CCc1nc2c(o1)C(=O)C(Nc1cccc(F)c1)=C(Br)C2=O
3.2,1.6,3.2,3.2,1.6,3.2,Nc1nc(=O)[nH]cc1F [FLUCYTOSINE]
